Laboratory results taken from ChEMBL document CHEMBL3822398, “Design, synthesis and in vitro biological evaluation of short-chain C12-sphinganine and its 1,2,3-triazole analogs as potential antimicrobial and anti-biofilm agents” (Eur J Med Chem, 2016).
≈ marks a conversion by molar mass, not a printed value.

How the values were obtained:
Type in all cases: functional
Staphylococcus aureus [1] = assay: Antibacterial activity against Staphylococcus aureus MLS16 MTCC 2940 incubated for 24 hrs at 37 degC by well diffusion method; settings: MLS16 MTCC 2940, 24 h
Bacillus subtilis [2] = assay: Antibacterial activity against Bacillus subtilis MTCC 121 incubated for 24 hrs at 37 degC by well diffusion method; settings: MTCC 121, 24 h
Raoultella planticola [3] = assay: Bactericidal activity against Klebsiella planticola MTCC 530 incubated for 24 hrs; settings: MTCC 530, 24 h
Escherichia coli [4] = assay: Bactericidal activity against Escherichia coli MTCC 739 incubated for 24 hrs; settings: MTCC 739, 24 h
Pseudomonas aeruginosa = assay: Antibacterial activity against Pseudomonas aeruginosa MTCC 2453 incubated for 24 hrs at 37 degC by well diffusion method; settings: MTCC 2453, 24 h
Micrococcus luteus [5] = assay: Bactericidal activity against Micrococcus luteus MTCC 2470 incubated for 24 hrs; settings: MTCC 2470, 24 h
Staphylococcus aureus [6] = assay: Bactericidal activity against Staphylococcus aureus MLS16 MTCC 2940 incubated for 24 hrs; settings: MLS16 MTCC 2940, 24 h
Staphylococcus aureus [7] = assay: Bactericidal activity against Staphylococcus aureus MTCC 96 incubated for 24 hrs; settings: MTCC 96, 24 h
Escherichia coli [8] = assay: Antibacterial activity against Escherichia coli MTCC 739 incubated for 24 hrs at 37 degC by well diffusion method; settings: MTCC 739, 24 h
Micrococcus luteus [9] = assay: Antibacterial activity against Micrococcus luteus MTCC 2470 incubated for 24 hrs at 37 degC by well diffusion method; settings: MTCC 2470, 24 h
Bacillus subtilis [10] = assay: Bactericidal activity against Bacillus subtilis MTCC 121 incubated for 24 hrs; settings: MTCC 121, 24 h
Staphylococcus aureus [11] = assay: Antibacterial activity against Staphylococcus aureus MTCC 96 incubated for 24 hrs at 37 degC by well diffusion method; settings: MTCC 96, 24 h
Raoultella planticola [12] = assay: Antibacterial activity against Klebsiella planticola MTCC 530 incubated for 24 hrs at 37 degC by well diffusion method; settings: MTCC 530, 24 h
Candida parapsilosis [13] = assay: Antifungal activity against Candida parapsilosis MTCC 1744 incubated for 24 hrs at 30 degC by well diffusion method; settings: Lodderomyces parapsilosis, MTCC 1744, 24 h
[Candida] aaseri [14] = Antifungal activity against Candida aaseri MTCC 1962 incubated for 24 hrs at 30 degC by well diffusion method; settings: Yamadazyma aaseri, MTCC 1962, 24 h
Candida albicans [15] = assay: Antifungal activity against Candida albicans MTCC 3017 incubated for 24 hrs at 30 degC by well diffusion method; settings: MTCC 3017, 24 h
Nakaseomyces glabratus [16] = assay: Fungicidal activity against Candida glabrata MTCC 3019 incubated for 24 hrs; settings: MTCC 3019, 24 h
Candida albicans [17] = assay: Antifungal activity against Candida albicans MTCC 1637 incubated for 24 hrs at 30 degC by well diffusion method; settings: MTCC 1637, 24 h
Candida albicans [18] = assay: Antifungal activity against Candida albicans MTCC 3958 incubated for 24 hrs at 30 degC by well diffusion method; settings: MTCC 3958, 24 h
Candida albicans [19] = assay: Antifungal activity against Candida albicans MTCC 227 incubated for 24 hrs at 30 degC by well diffusion method; settings: MTCC 227, 24 h
Pichia sporocuriosa [20] = assay: Antifungal activity against Issatchenkia hanoiensis MTCC 4755 incubated for 24 hrs at 30 degC by well diffusion method; settings: MTCC 4755, 24 h
Candida albicans [21] = assay: Fungicidal activity against Candida albicans MTCC 3017 incubated for 24 hrs; settings: MTCC 3017, 24 h
Candida albicans [22] = assay: Fungicidal activity against Candida albicans MTCC 4748 incubated for 24 hrs; settings: MTCC 4748, 24 h
Candida albicans [23] = assay: Antifungal activity against Candida albicans MTCC 3018 incubated for 24 hrs at 30 degC by well diffusion method; settings: MTCC 3018, 24 h
Pichia kudriavzevii [24] = assay: Fungicidal activity against Candida krusei MTCC 3020 incubated for 24 hrs; settings: MTCC 3020, 24 h
Candida albicans [25] = assay: Fungicidal activity against Candida albicans MTCC 3018 incubated for 24 hrs; settings: MTCC 3018, 24 h
Candida albicans [26] = assay: Fungicidal activity against Candida albicans MTCC 3958 incubated for 24 hrs; settings: MTCC 3958, 24 h
Pichia kudriavzevii [27] = assay: Antifungal activity against Candida krusei MTCC 3020 incubated for 24 hrs at 30 degC by well diffusion method; settings: MTCC 3020, 24 h
Candida parapsilosis [28] = assay: Fungicidal activity against Candida parapsilosis MTCC 1744 incubated for 24 hrs; settings: Lodderomyces parapsilosis, MTCC 1744, 24 h
Pichia sporocuriosa [29] = assay: Fungicidal activity against Issatchenkia hanoiensis MTCC 4755 incubated for 24 hrs; settings: MTCC 4755, 24 h
[Candida] aaseri [30] = Fungicidal activity against Candida aaseri MTCC 1962 incubated for 24 hrs; settings: Yamadazyma aaseri, MTCC 1962, 24 h
Candida albicans [31] = assay: Fungicidal activity against Candida albicans MTCC 7315 incubated for 24 hrs; settings: MTCC 7315, 24 h
Candida albicans [32] = assay: Fungicidal activity against Candida albicans MTCC 1637 incubated for 24 hrs; settings: MTCC 1637, 24 h
Candida albicans [33] = assay: Fungicidal activity against Candida albicans MTCC 183 incubated for 24 hrs; settings: MTCC 183, 24 h
Candida albicans [34] = assay: Antifungal activity against Candida albicans MTCC 4748 incubated for 24 hrs at 30 degC by well diffusion method; settings: MTCC 4748, 24 h
Candida albicans [35] = assay: Fungicidal activity against Candida albicans MTCC 227 incubated for 24 hrs; settings: MTCC 227, 24 h
Candida albicans [36] = assay: Antifungal activity against Candida albicans MTCC 854 incubated for 24 hrs at 30 degC by well diffusion method; settings: MTCC 854, 24 h
Candida albicans [37] = assay: Fungicidal activity against Candida albicans MTCC 854 incubated for 24 hrs; settings: MTCC 854, 24 h
Nakaseomyces glabratus [38] = assay: Antifungal activity against Candida glabrata MTCC 3019 incubated for 24 hrs at 30 degC by well diffusion method; settings: MTCC 3019, 24 h
Candida albicans [39] = assay: Antifungal activity against Candida albicans MTCC 183 incubated for 24 hrs at 30 degC by well diffusion method; settings: MTCC 183, 24 h
Candida albicans [40] = assay: Antifungal activity against Candida albicans MTCC 7315 incubated for 24 hrs at 30 degC by well diffusion method; settings: MTCC 7315, 24 h

## CCCCCCCCC[C@@H](O)[C@H](CO)n1cc(CO)nn1
Staphylococcus aureus [1]
  MIC: > 250 µg/mL
Bacillus subtilis [2]
  MIC: 31.2 µg/mL (≈ 104 µM)
Raoultella planticola [3]
  MBC: > 250 µg/mL
Escherichia coli [4]
  MBC: > 250 µg/mL
Pseudomonas aeruginosa
  MIC: > 250 µg/mL
Micrococcus luteus [5]
  MBC: 15.6 µg/mL (≈ 52.1 µM)
Staphylococcus aureus [6]
  MBC: > 250 µg/mL
Staphylococcus aureus [7]
  MBC: > 250 µg/mL
Escherichia coli [8]
  MIC: > 250 µg/mL
Micrococcus luteus [9]
  MIC: 7.8 µg/mL (≈ 26.1 µM)
Bacillus subtilis [10]
  MBC: 31.2 µg/mL (≈ 104 µM)
Staphylococcus aureus [11]
  MIC: > 250 µg/mL
Raoultella planticola [12]
  MIC: > 250 µg/mL

## CCCCCCCCC[C@@H](O)[C@@H](N)CO
Staphylococcus aureus [1]
  MIC: 31.2 µg/mL (≈ 144 µM)
Candida parapsilosis [13]
  MIC: 62.5 µg/mL (≈ 288 µM)
[Candida] aaseri [14]
  MIC: 15.6 µg/mL (≈ 71.8 µM)
Candida albicans [15]
  MIC: 15.6 µg/mL (≈ 71.8 µM)
Nakaseomyces glabratus [16]
  MFC: 7.8 µg/mL (≈ 35.9 µM)
Candida albicans [17]
  MIC: 15.6 µg/mL (≈ 71.8 µM)
Candida albicans [18]
  MIC: 15.6 µg/mL (≈ 71.8 µM)
Candida albicans [19]
  MIC: 31.2 µg/mL (≈ 144 µM)
Pichia sporocuriosa [20]
  MIC: 15.6 µg/mL (≈ 71.8 µM)
Bacillus subtilis [2]
  MIC: > 250 µg/mL
Raoultella planticola [3]
  MBC: 31.2 µg/mL (≈ 144 µM)
Escherichia coli [4]
  MBC: 31.2 µg/mL (≈ 144 µM)
Pseudomonas aeruginosa
  MIC: > 250 µg/mL
Micrococcus luteus [5]
  MBC: 7.8 µg/mL (≈ 35.9 µM)
Candida albicans [21]
  MFC: 31.2 µg/mL (≈ 144 µM)
Candida albicans [22]
  MFC: 31.2 µg/mL (≈ 144 µM)
Staphylococcus aureus [6]
  MBC: 31.2 µg/mL (≈ 144 µM)
Candida albicans [23]
  MIC: 7.8 µg/mL (≈ 35.9 µM)
Pichia kudriavzevii [24]
  MFC: 31.2 µg/mL (≈ 144 µM)
Candida albicans [25]
  MFC: 15.6 µg/mL (≈ 71.8 µM)
Staphylococcus aureus [7]
  MBC: > 250 µg/mL
Escherichia coli [8]
  MIC: 15.6 µg/mL (≈ 71.8 µM)
Candida albicans [26]
  MFC: 31.2 µg/mL (≈ 144 µM)
Pichia kudriavzevii [27]
  MIC: 15.6 µg/mL (≈ 71.8 µM)
Micrococcus luteus [9]
  MIC: 3.9 µg/mL (≈ 17.9 µM)
Bacillus subtilis [10]
  MBC: > 250 µg/mL
Candida parapsilosis [28]
  MFC: 62.5 µg/mL (≈ 288 µM)
Pichia sporocuriosa [29]
  MFC: 15.6 µg/mL (≈ 71.8 µM)
[Candida] aaseri [30]
  MFC: 31.2 µg/mL (≈ 144 µM)
Candida albicans [31]
  MFC: 62.5 µg/mL (≈ 288 µM)
Candida albicans [32]
  MFC: 15.6 µg/mL (≈ 71.8 µM)
Staphylococcus aureus [11]
  MIC: > 250 µg/mL
Candida albicans [33]
  MFC: 15.6 µg/mL (≈ 71.8 µM)
Candida albicans [34]
  MIC: 31.2 µg/mL (≈ 144 µM)
Candida albicans [35]
  MFC: 62.5 µg/mL (≈ 288 µM)
Raoultella planticola [12]
  MIC: 15.6 µg/mL (≈ 71.8 µM)
Candida albicans [36]
  MIC: 31.2 µg/mL (≈ 144 µM)
Candida albicans [37]
  MFC: 31.2 µg/mL (≈ 144 µM)
Nakaseomyces glabratus [38]
  MIC: 7.8 µg/mL (≈ 35.9 µM)
Candida albicans [39]
  MIC: 15.6 µg/mL (≈ 71.8 µM)
Candida albicans [40]
  MIC: 31.2 µg/mL (≈ 144 µM)
